Test results from patent US9307761B2, “Microbial composition” (Rohm and Haas Company, priority 2011, dated 2016).

Experiments:
Type in all cases: cell-based
[1] = tested on: Escherichia coli (10536 strain); assay: 15 seconds contact kill assay of actives in water, mean bacterial survival NMBS; settings: for NMBS: alone, 15 seconds contact
[2] = tested on: Escherichia coli (E. coli—ATCC #10536); assay: Automated assessment of efficacy in model surfactant medium (2.85% sodium cocoyl glycinate and 1.85% sodium lauroamphoacetate), 15 seconds exposure, delta OD450/OD590; settings: for MBC: Escherichia coli, ATCC10536, 15 s, in 2.85% sodium cocoyl glycinate + 1.85% sodium lauroamphoacetate solution at pH 10, E. coli, read-out: MBC (minimum biocidal concentration); for No. of replicates showing growth (out of 4) / Δ OD 450 nm = OD450 (time = 16 hours) − OD450 (time zero), Mean / Δ OD 590 nm OD590 (time = 16 hours) − OD590 (time zero), Mean / MBC of phenol: model surfactant solution; for No. of replicates showing growth (out of 4) / Δ OD 450 nm = OD450 (time = 16 hours) − OD450 (time zero), Mean / Δ OD 590 nm OD590 (time = 16 hours) − OD590 (time zero), Mean: 15 s exposure; for MBC of phenol: phenol alone, complete bacterial kill against E. coli
Description: Micobiocidal Activity of Actives as Per the Invention in a Model Surfactant Medium Test Methodology for Automated Assessment of Efficacy in Surfactant Base
Solutions were prepared such that the concentrations of the surfactant components and test actives were 1.1×the final desired concentration in order to allow for dilution with the bacterial inoculum in the test. The solutions were manually adjusted to […] by dropwise addition of sodium hydroxide solution, as measured with a pH meter at ambient temperature.
Tests were conducted using standard microtiter plate assays using an automated liquid handling system, 270 μl of the surfactant test solution was pipetted into each well of the microtitre plate and 30 μl of the bacterial suspension was then added. After exactly 15 seconds of bacterial exposure, a 30 μl volume of bacterial cells was withdrawn and transferred to 270 μl of D/E quench solution. After 5 minutes in the D/E quench, the optical density (OD) was measured for each plate in turn at two specific wavelengths (450 nm and 590 nm). These provide a dual check of antimicrobial activity, as the OD450 reading is specific for the yellow colour of D/E quench when bacterial growth is observed, whereas OD590 is specific for the initial purple colour of the D/E quench which is retained if no bacterial growth is observed. After the time zero OD measurements, plates were then incubated at 37° C. overnight (16 hours) before repeating the OD measurements. Delta OD values were calculated by subtracting […]. Bacterial growth is observed as art increase in OD450 and a decrease in ΔOD590. To identify antibacterially efficacious systems (those preventing appreciable bacterial growth after incubation), the following threshold changes in OD readings have been adopted: if (1). OD450 increases by less than 0.2 absorbance unit on incubation and (2). OD590 decreases by less than 0.35 unit on incubation. Conversely, where OD450 increases by more than 0.2 AU and OD590 decreases by more than 0.35 unit after incubation, corresponding to a colour shift from purple to yellow, the test system allows bacterial growth and is not deemed efficacious, four replicate measurements in the same plate have been made for each test system. The number of replicate wells showing either bacterial growth or no growth is also readily assessed by eye by following the colour change.
Dose responses for individual components and binary mixtures of actives at a fixed concentration ratio were generated by sequential dilution of liquors with further surfactant solution to obtain a series of endpoints.
In some selected cases, the combinations were also tested at the weight ratio 1:1.

[3] = tested on: Escherichia coli (E. coli—ATCC #10536); assay: Synergy tests: high resolution MBC microtiter plate assay, 15 seconds contact, phosphate buffer containing […] dipropylene glycol; settings: E. coli 10536; for SI (Synergy Index = Qa/QA + Qb/QB): at Qa and Qb, <1 synergy, 1 additivity, >1 antagonism
Excerpt: The concentrations and ratios may also vary under different test conditions or with different test methods.
One measure of synergy is the industrially accepted method described by Kull, F. C.; Eisman, P. C.; Sylwestrowicz, H. D. and Mayer, R. L., in Applied Microbiology 9:538-541 (1961), using the ratio determined by the formula: Qa/QA+Qb/QB=Synergy Index (“SI”) wherein: • QA=concentration of compound A (first component) in percent, acting alone, which produced an end point (MBC of Compound A). • Qa=concentration of compound A in percent, in the mixture, which produced an end point. • QB=concentration of compound B (second component) in percent, acting alone, which produced an end point (MBC of Compound B). • Qb=concentration of compound B in percent, in the mixture, which produced an end point.
When the sum of Qa/QA and Qb/QB is greater than one, antagonism is indicated. […] The lower the SI, the greater is the synergy shown by that particular mixture. The minimum biocidal concentration (MBC) of a microbicide is the lowest concentration tested under a specific set of conditions that provides complete kill of the tested microorganisms.
Synergy tests were conducted using standard microtiter plate assays with phosphate buffer containing 3.5% dipropylene glycol (DPG). In this method, a wide range of combinations of chemicals was tested by conducting high resolution MBC assays of Component (A) in the presence of various concentrations of Component (B). High resolution MBCs were determined by adding varying amounts of microbicide to one column of a microtiter plate and doing subsequent […] dilutions using an automated liquid handling system to obtain a series of closely spaced endpoints. The MBC plate was inoculated one column at a time with the test microorganism. An aliquot of the inoculated well was transferred at 15 seconds to a plate containing a neutralizing agent (D/E Neutralizing Broth), mixed and held for 5 minutes before being transferred to a growth plate containing trypticase soy broth (TSB). The TSB plate was incubated at 37° C. and read for the presence/absence of growth at 24 hours. The lowest level tested that provided complete kill (as evidenced by no growth in the microtitre plate) of the test organisms in 15 seconds is the minimum biocidal concentration (MBC).
The synergy of the combinations of the present invention was determined against a bacterium, Escherichia coli (E. coli—ATCC #10536), at a concentration of approximately 1×10^8 bacteria, per mL. This microorganism is representative of natural contaminants in many consumer and industrial applications.

[4] = single active alone at 0.2% w/v
[5] = single active alone at 0.3% w/v
[6] = single active alone at 0.1% w/v
[7] = single active alone at 0.175% w/v

## CC1=CC[C@@H](CO)[C@H](C)C1 (relative stereo) [Floralol, Trans-4,6-dimethyl-3-Cyclohexene-1-methanol]
[1]; 0.3% w/v, E. coli
  NMBS: 0 log CFU/ml
[1]; 0.4% w/v, E. coli
  NMBS: 0 log CFU/ml
[1]; E. coli, in water, component alone
  MBC (minimum biocidal concentration): 0.3 % w/v
[1]; […] w/v, E. coli
  NMBS: 7.92 log CFU/ml
[1]; antimicrobial alcohol alone, complete bacterial kill against E. coli
  MBC of antimicrobial alcohol: 0.3 % (w/v)
[2]
  MBC: 4000 µg/mL
[2]; [4]
  No. of replicates showing growth (out of 4): 4
  Δ OD 450 nm = OD450 (time = 16 hours) − OD450 (time zero), Mean: −1.43
  Δ OD 590 nm OD590 (time = 16 hours) − OD590 (time zero), Mean: 0.35
[2]; [5]
  No. of replicates showing growth (out of 4): 4
  Δ OD 450 nm = OD450 (time = 16 hours) − OD450 (time zero), Mean: −1.20
  Δ OD 590 nm OD590 (time = 16 hours) − OD590 (time zero), Mean: 0.55
[2]; single active alone at […] w/v
  No. of replicates showing growth (out of 4): 1
  Δ OD 450 nm = OD450 (time = 16 hours) − OD450 (time zero), Mean: −0.29
  Δ OD 590 nm OD590 (time = 16 hours) − OD590 (time zero), Mean: 0.23

## CC1=CC(C)C(CO)C(C)C1 (stereo not shown) [2,4,6-trimethyl-3-cyclohexene-1-methanol]
[2]
  MBC: 4000 µg/mL
[2]; [4]
  No. of replicates showing growth (out of 4): 4
  Δ OD 450 nm = OD450 (time = 16 hours) − OD450 (time zero), Mean: −1.50
  Δ OD 590 nm OD590 (time = 16 hours) − OD590 (time zero), Mean: 0.29
[2]; single active alone at […] w/v
  No. of replicates showing growth (out of 4): 4
[3]
  SI (Synergy Index = Qa/QA + Qb/QB): 1.00

## CC1=CCC(C(C)CO)CC1 (stereo not shown) [2-(4-methylcyclohex-3-enyl)propan-1-ol]
[3]
  SI (Synergy Index = Qa/QA + Qb/QB): 1.00

## CCCc1ccccc1O [2-propyl phenol]
[1]; phenolic compound alone, complete bacterial kill against E. coli
  MBC of phenolic compound: 0.125 % (w/v)

## CCC(C)c1ccccc1O (stereo not shown) [2-sec-butyl phenol]
[2]
  MBC of phenol: 0.175 % (w/v)

## CCC(C)c1ccccc1O (stereo not shown) [2-sec-butylphenol]
[2]; [6]
  No. of replicates showing growth (out of 4): 4
  Δ OD 450 nm = OD450 (time = 16 hours) − OD450 (time zero), Mean: −1.44
  Δ OD 590 nm OD590 (time = 16 hours) − OD590 (time zero), Mean: 0.36

## CC(C)(C)c1ccccc1O [2-ter-butylphenol]
[2]; [7]
  No. of replicates showing growth (out of 4): 4
  Δ OD 450 nm = OD450 (time = 16 hours) − OD450 (time zero), Mean: −1.08
  Δ OD 590 nm OD590 (time = 16 hours) − OD590 (time zero), Mean: 0.57

## Cc1ccc(C(C)(C)C)c(O)c1 [2-tert-butyl-5-methylphenol]
[2]
  MBC of phenol: 0.2 % (w/v)

## CC(C)(C)c1ccccc1O [2-tert-butylphenol]
[3]
  SI (Synergy Index = Qa/QA + Qb/QB): 1.00

## CC(C)(C)c1cccc(O)c1 [3-tert-butylphenol]
[3]
  SI (Synergy Index = Qa/QA + Qb/QB): 1.00
[3]; component alone, complete kill in 15 seconds
  MBC of the component acting alone (QA or QB): 0.3 weight %
